Reference: PubChem BioAssay (NCI)
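Following 48 hours of exposure in 96-well plates, responses at five concentrations were used to interpolate endpoints linearly. Here, GI50 denotes the concentration required for 50% inhibition of growth. Definition used: TGI = concentration required for complete inhibition of growth.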

Key:
Assay in all cases: NCI tumour cell line growth inhibition, 48 h
OVCAR-3 ovarian = system: OVCAR-3 ovarian
SK-MEL-2 melanoma = system: SK-MEL-2 melanoma
LOX IMVI melanoma = system: LOX IMVI melanoma
OVCAR-8 ovarian = system: OVCAR-8 ovarian
OVCAR-5 ovarian = system: OVCAR-5 ovarian
HOP-62 NSCLC = system: HOP-62 NSCLC
786-0 renal = system: 786-0 renal
M14 melanoma = system: M14 melanoma
ACHN renal = system: ACHN renal
DU-145 prostate = system: DU-145 prostate

Row | SMILES | TGI (OVCAR-3 ovarian) [µM] | TGI (SK-MEL-2 melanoma) [µM] | TGI (LOX IMVI melanoma) [µM] | TGI (OVCAR-8 ovarian) [µM] | TGI (OVCAR-5 ovarian) [µM] | TGI (HOP-62 NSCLC) [µM] | TGI (786-0 renal) [µM] | TGI (M14 melanoma) [µM] | TGI (ACHN renal) [µM] | GI50 (SK-MEL-2 melanoma) [µM] | TGI (DU-145 prostate) [µM]
1 | Brc1ccc(C[P+]2(c3ccccc3)CCCCC2)cc1 | > 100 | > 100 | > 100 | > 100 | > 100 | > 100 | > 100 | > 100 | > 100 | – | –
2 | O=C(N/N=C/c1cc(Cl)cc(Cl)c1[O-])c1ccccc1O.O=C(N/N=C/c1cc(Cl)cc(Cl)c1[O-])c1ccccc1O.[Co+2] | 0.969 | 3.74 | 11.8 | 11.6 | 6.27 | 5.07 | – | 2.95 | 10.7 | 0.37 | –
3 | O=C1C(Br)=C(c2ccccc2)O/C1=C/C(=O)c1ccc(Br)cc1 | > 100 | – | – | 81.1 | > 100 | > 100 | 47 | > 100 | > 100 | – | > 100
4 | CCC1(N=[N+]=[N-])C(=O)c2ccccc2N(C)C1=O (stereo unspecified) | > 100 | > 100 | > 100 | > 100 | > 100 | > 100 | > 100 | > 100 | > 100 | – | –
5 | COc1ccc(C(=O)O[C@H]2[C@@H]3C=CO[C@@H](OC4OC(CO)C(O)C(O)C4O)[C@@H]3[C@@]3(CO)O[C@@H]23)cc1O (stereo partly specified) | > 100 | > 100 | > 100 | > 100 | > 100 | > 100 | > 100 | > 100 | > 100 | – | –
6 | O=S(=O)(O)c1cc(N=Nc2c(O)ccc3ccccc23)ccc1/C=C/c1ccc(N=Nc2c(O)ccc3ccccc23)cc1S(=O)(=O)O | > 100 | > 100 | – | > 100 | > 100 | > 100 | > 100 | > 100 | > 100 | – | –
7 | COc1ccc(C(c2c(O)c3ccccc3n(-c3ccccc3)c2=O)c2c(O)c3ccccc3n(-c3ccccc3)c2=O)cc1 | > 100 | > 100 | > 100 | – | > 100 | > 100 | > 100 | – | > 100 | – | –
8 | Cc1c2ccncc2cc2c1[nH]c1ccccc12 | 25.8 | 23.2 | 7.35 | 16.2 | 13.6 | 21.8 | – | – | – | – | –
9 | Cc1c2c3ccccc3nc-2n(C)c2ccccc12 | 5.69 | – | – | 15.1 | 8.27 | 31.9 | 13 | 20.5 | 6.23 | – | 29.6
10 | O=C(NCCN1CCOCC1)c1cn2c(ccc3sc4ccccc4c(=O)c32)n1 | > 100 | – | 47.4 | > 100 | > 100 | > 100 | 40 | – | > 100 | – | > 100
11 | CCOc1ccc2[nH]c3c(C)c4ccncc4c(C)c3c2c1 | 17.7 | 2.48 | 2.49 | – | 2.93 | 2.3 | 2.2 | 2.9 | 2.25 | – | –
12 | CC(=O)OCC1OC(n2cc(F)c(=O)[nH]c2=O)C(NC(=O)OCc2ccccc2)C(OC(C)=O)C1OC(C)=O (stereo unspecified) | > 100 | > 100 | > 100 | > 100 | > 100 | > 100 | – | – | – | – | –
13 | CN(C(=O)C12C3C4C5C3C1(C(=O)C13C6C7C8C6C1C8C73)C5C42)C(C)(C)C (stereo unspecified) | > 50 | > 50 | > 29.7 | > 50 | > 50 | > 50 | > 50 | > 50 | > 50 | – | –
14 | NC1=C(NC(=O)Cc2ccccc2F)C(=O)c2ccccc2C1=O | 66.9 | > 100 | – | > 100 | – | 51 | 98.2 | > 100 | > 100 | – | –
15 | COc1cc(C(C)O)c(S(=O)(=O)CC(C)O)nn1 (stereo unspecified) | > 100 | – | > 100 | > 100 | > 100 | – | – | > 100 | > 100 | – | > 100
16 | C=C1C(=O)O[C@H]2C[C@@]3(COC(C)=O)C=COC=C(COC(=O)C(C)C)C3CC12 (stereo partly specified) | > 100 | – | > 100 | > 100 | > 100 | > 100 | > 100 | – | > 100 | – | > 100
17 | CN(C)CCNC(=O)c1ccc(NCCCN(C)CCCNc2ccc(C(=O)NCCN(C)C)c3[nH]c4ccccc4c(=O)c23)c2c(=O)c3ccccc3[nH]c12 | 0.694 | 0.262 | 0.179 | 1.14 | 0.647 | 0.459 | 0.312 | 1.46 | 1.71 | – | –
18 | N#CN/C(N)=N/C/N=C(\N)NC#N | > 100 | > 100 | – | > 100 | > 100 | > 100 | 60.8 | > 100 | > 100 | – | –
19 | O=C1CC2CC3OC3[C@H]3c4cc5c(cc4C(=O)N1C23)OCO5 (stereo partly specified) | > 100 | > 100 | > 100 | > 100 | > 100 | > 100 | – | > 100 | > 100 | – | –
